Key:
[1] = biological target: T1, HCV genotype 1b (BK) NS3 modified enzyme with a R155K mutation (Hepatitis C virus genotype 1b, UniProt P26663, R1181K); experiment: HCV NS3 protease time-resolved fluorescence (TRF) assay, genotype 1b R155K; type: biochemical; conditions: Ki 1b R155K, genotype 1b (BK) NS3 R155K; single value
T1 construct: HCV genotype 1b (BK) NS3 modified enzyme
In short: (§1)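 Assay buffer: 50 mM HEPES pH 7.5, 150 mM NaCl, 0.1% PEG 8000, 0.15% Triton X-100. Ten-minute enzyme–inhibitor preincubation; substrate at 25 nM final; 6 h reaction, room temperature; signal/background set at 5-20 by enzyme amount.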

[2] = biological target: HCV NS3 protease genotype 3a (3A-1) (Hepatitis C virus genotype 3a, UniProt Q81258); experiment: HCV NS3 protease time-resolved fluorescence (TRF) assay, genotype 3a; type: biochemical; conditions: Ki 3a
In short: as §1

Compound	Ki [1] [nM]	Ki [2] [nM]
C=C[C@@H]1C[C@]1(NC(=O)[C@@H]1C[C@@H]2CN1C(=O)[C@H](C(C)(C)C)NC(=O)O[C@@H]1C[C@H]1CCCCCc1c(nc3cc(C(C)C)ccc3c1OCCCN1CCS(=O)(=O)CC1)O2)C(=O)NS(=O)(=O)C1(C)CC1 [Example 162, (1aR,5S,8S,10R,22aR)-5-tert-butyl-17-[3-(1,1-dioxidothiomorpholin-4-yl)propoxy]-N-[(1R,2S)-2-ethenyl-1-{[(1-methylcyclopropyl)sulfonyl]carbamoyl}cyclopropyl]-3,6-dioxo-14-(propan-2-yl)-1,1a,3,4,5,6,9,10,18, 19,20,21,22,22a-tetradecahydro-8H-7,10-methanocyclopropa[18,19] [1,10,3,6]dioxadiazacyclononadecino [11,12-b]quinoline-8-carboxamide]	0.18	1.7
C=C[C@@H]1C[C@]1(NC(=O)[C@@H]1C[C@@H]2CN1C(=O)[C@H](C(C)(C)C)NC(=O)O[C@@H]1C[C@H]1CCCCCc1c(nc3cc(C(C)C)ccc3c1OCCCN1C[C@@H]3C[C@H]1CO3)O2)C(=O)NS(=O)(=O)C1(C)CC1 [Example 164, (1aR,5S,8S,10R,22aR)-5-tert-butyl-N-[(1R,2S)-2-ethenyl-1-{[(1-methylcyclopropyl)sulfonyl]carbamoyl}cyclopropyl]-17-{3-[(1S,4S)-2-oxa-5-azabicyclo[2.2.1]hept-5-yl]propoxy}-3,6-dioxo-14-(propan-2-yl)-1,1a,3,4,5,6,9,10,18,19,20, 21,22,22a-tetradecahydro-8H-7,10-methanocyclopropa[18,19][1,10,3,6] dioxadiazacyclononadecino [11,12-b]quinoline-8-carboxamide]	0.096	1.2
C=C[C@@H]1C[C@]1(NC(=O)[C@@H]1C[C@@H]2CN1C(=O)[C@H](C1CCCCC1)NC(=O)O[C@@H]1C[C@H]1CCCCCc1c(nc3ccccc3c1OCCCN1CCN(S(C)(=O)=O)CC1)O2)C(=O)NS(=O)(=O)C1(C)CC1 [Example 165, (1aR,5S,8S,10R,22aR)-5-cyclohexyl-N-[(1R,2S)-2-ethenyl-1-{[(1-methylcyclopropyl)sulfonyl]carbamoyl}cyclopropyl]-17-{3-[4-(methylsulfonyl)piperazin-1-yl]propoxy}-3,6-dioxo-1,1a,3,4,5,6,9,10, 18,19,20,21,22,22a-tetradecahydro-8H-7,10-methanocyclopropa[18,19][1,10,3,6] dioxadiazacyclononadecino[11,12-b] quinoline-8-carboxamide]	0.24	2.8
C=C[C@@H]1C[C@]1(NC(=O)[C@@H]1C[C@@H]2CN1C(=O)[C@H](C1CCCCC1)NC(=O)O[C@@H]1C[C@H]1CCCCCc1c(nc3ccccc3c1OCCCN1CCC(S(C)(=O)=O)C1)O2)C(=O)NS(=O)(=O)C1(C)CC1 (stereo partly drawn) [Example 166, (1aR,5S,8S,10R,22aR)-5-cyclohexyl-N-[(1R,2S)-2-ethenyl-1-{[(1-methylcyclopropyl)sulfonyl]carbamoyl}cyclopropyl]-17-{3-[3-(methylsuflonyl)pyrrolidin-1-yl]propoxy}-3,6-dioxo-1,1a,3,4,5,9,10, 18,19,20,21,22,22a-tetradecahydro-8H-7,10-methanocyclopropa[18,19][1,10,3,6] dioxadiazacyclononadecino[11,12-b] quinoline-8-carboxamide]	0.11	2.2
C=C[C@@H]1C[C@]1(NC(=O)[C@@H]1C[C@@H]2CN1C(=O)[C@H](C1CCCCC1)NC(=O)O[C@@H]1C[C@H]1CCCCCc1c(nc3ccccc3c1OCCCN1CCC(C(F)(F)F)CC1)O2)C(=O)NS(=O)(=O)C1(C)CC1 [Example 167]	1.3	41

Source: patent publication US9328138B2 (priority 2011, dated 2016)
